Experimental findings from patent US9133184B2, “Chromen-2-one derivatives and their use as monoamine neurotransmitter re-uptake inhibitors” (ANIONA APS, priority 2010, dated 2015) are described below.

Structures can show the parent of a compound that is named as a salt.

What all share (format): biochemical
Assay [1] deals with noradrenaline (NA) reuptake in synaptosomes. Kind of assay: Inhibition of NA reuptake in synaptosomes. Conditions: 3H-NA, read-out: NA-uptake IC50. The procedure: (§1) Compounds were tested for their ability to inhibit the reuptake of the monoamine neurotransmitters dopamine (DA) noradrenaline (NA) and serotonine (5-HT) in synaptosomes as described in WO 97/16451 (NeuroSearch A/S).
(§2) The test values are given as IC50 (the concentration (μM) of the test substance which inhibits the specific binding of ^3H-DA, ^3H-NA, or ^3H-5-HT by 50%).

Assay [2] deals with dopamine (DA) reuptake in synaptosomes. Kind of assay: Inhibition of DA reuptake in synaptosomes. Conditions: 3H-DA, read-out: DA-uptake IC50. Here is the method:
as §1, §2

For assay [3], the system named is serotonine (5-HT) reuptake in synaptosomes. Kind of assay: Inhibition of 5-HT reuptake in synaptosomes. The following applies: 3H-5-HT, read-out: 5-HT-uptake IC50. The procedure: as §1, §2

Consider `COc1cc2ccc(O[C@@H]3C[C@H]4CC[C@@H](C3)N4)cc2oc1=O` [Compound 1.1, Exo-7-[(-8-azabicyclo[3.2.1]octan-3-yl)oxy]-3-methoxy-chromen-2-one hydrochloride], for which the IC50 came to 3.8 nM in assay [1], 70 nM in assay [2] and 2.9 nM in assay [3].

The IC50 is the concentration that inhibits the measured activity by half.
